Tests used:
Assay in all cases: Resistance profile of strain (Table 3)
Format in all cases: cell-based
[1] = tested on: Pseudomonas aeruginosa 5539; settings: strain 5539
[2] = tested on: MDR-Acinetobacter baumannii 5542; settings: strain 5542 A. baumannii
[3] = tested on: Pseudomonas aeruginosa 2798 (ATCC 2798); settings: strain 2798 (ATCC 2798)
Source text: (§1) The effect of P[5]a on the penetration and efficacy of coadministered antibiotics Amikacin (a), Cefepime (b), Ceftazidime (c) and Meropenem (d) in MDR resistant clinical isolates were studied.

[4] = tested on: Pseudomonas aeruginosa 5542; settings: strain 5542 P. aeruginosa
Source text: as §1

[5] = tested on: Pseudomonas aeruginosa 5550; settings: strain 5550
Source text: as §1

[6] = tested on: Pseudomonas aeruginosa 5832; settings: strain 5832
Source text: as §1

[7] = tested on: Pseudomonas aeruginosa 5834; settings: strain 5834
Source text: as §1

[8] = tested on: Pseudomonas aeruginosa 5827; settings: strain 5827

CO/N=C(\C(=O)N[C@@H]1C(=O)N2C(C(=O)O)=C(COC(N)=O)CS[C@H]12)c1ccco1 [cefurixome]
Antibiotic resistance (category) [1]: resistant

CC[C@H]1OC(=O)[C@H](C)[C@@H](O[C@H]2C[C@@](C)(OC)[C@@H](O)[C@H](C)O2)[C@H](C)[C@@H](O[C@@H]2O[C@H](C)C[C@H](N(C)C)[C@H]2O)[C@](C)(O)C[C@@H](C)CN(C)[C@H](C)[C@@H](O)[C@]1(C)O [Azithromycin, azithromycin]
Antibiotic resistance (category) [2]: Resistant to Amikacin, Amoxicillin-clavulanate, Ampicillin,

C[C@@H](O)[C@H]1C(=O)N2C(C(=O)O)=C(S[C@@H]3CN[C@H](CNS(N)(=O)=O)C3)[C@H](C)[C@H]12 [Doripenem, doripenem]
Antibiotic resistance (category) [3]: Aztreonam & Cefepime, Resistant to Ceftazidime, Cirpofloxacin,

Colistin
Antibiotic resistance (category) [3]: Susceptible

CN(C)c1cc(NC(=O)CNC(C)(C)C)c(O)c2c1C[C@H]1C[C@H]3[C@H](N(C)C)C(O)=C(C(N)=O)C(=O)[C@@]3(O)C(O)=C1C2=O [Tigecycline]
Antibiotic resistance (category) [2]: Resistant to Amikacin, Amoxicillin-clavulanate, Ampicillin,

CC1(C)S[C@@H]2[C@H](NC(=O)[C@H](N)c3ccccc3)C(=O)N2[C@H]1C(=O)O [Ampicillin]
Antibiotic resistance (category) [2]: Resistant to Amikacin, Amoxicillin-clavulanate, Ampicillin,

C[C@@H](O)[C@H]1C(=O)N2C(C(=O)O)=C(S[C@@H]3CN[C@H](C(=O)Nc4cccc(C(=O)O)c4)C3)[C@H](C)[C@H]12 [Ertapenem, ertapenem]
Antibiotic resistance (category) [2]: Resistant to Amikacin, Amoxicillin-clavulanate, Ampicillin,

Cc1cc(NS(=O)(=O)c2ccc(N)cc2)no1 [Sulfamethoxazole]
Antibiotic resistance (category) [2]: Resistant to Amikacin, Amoxicillin-clavulanate, Ampicillin,

NCC[C@H](O)C(=O)N[C@@H]1C[C@H](N)[C@@H](O[C@H]2O[C@H](CN)[C@@H](O)[C@H](O)[C@H]2O)[C@H](O)[C@H]1O[C@H]1O[C@H](CO)[C@@H](O)[C@H](N)[C@H]1O [amikacin, Amikacin]
Antibiotic resistance (category) [2]: Resistant to Amikacin, Amoxicillin-clavulanate, Ampicillin,
Antibiotic resistance (category) [3]: Susceptible
Antibiotic resistance (category) [4]: intermediate susceptible
Antibiotic resistance (value given with the category, MIC) [4]: 16 µg
Antibiotic resistance (category) [5]: Intermediate susceptible
Antibiotic resistance (value given with the category, MIC) [5]: 32 µg
Antibiotic resistance (category) [6]: Intermediate susceptible
Antibiotic resistance (value given with the category, MIC) [6]: 16 µg
Antibiotic resistance (category) [7]: intermediate susceptible
Antibiotic resistance (value given with the category, MIC) [7]: 16 µg
Antibiotic resistance (category) [8]: Intermediate susceptible
Antibiotic resistance (value given with the category, MIC) [8]: 32 µg
Antibiotic resistance (category) [1]: Susceptible
Antibiotic resistance (value given with the category, MIC) [1]: 8 µg

CC1=C(C(=O)O)N2C(=O)[C@@H](NC(=O)[C@H](N)c3ccccc3)[C@H]2SC1 [Cefalexin]
Antibiotic resistance (category) [2]: Resistant to Amikacin, Amoxicillin-clavulanate, Ampicillin,

Amoxicillin-clavulanate
Antibiotic resistance (category) [2]: Resistant to Amikacin, Amoxicillin-clavulanate, Ampicillin,

Piperacillin-tazobactam
Antibiotic resistance (category) [2]: Resistant to Amikacin, Amoxicillin-clavulanate, Ampicillin,
Antibiotic resistance (category) [3]: Aztreonam & Cefepime, Resistant to Ceftazidime, Cirpofloxacin,
Antibiotic resistance (category) [1]: resistant

Reference: patent US20230145342A1, “COMBINATORY TREATMENT” (AALTO UNIVERSITY FOUNDATION SR, priority 2020, published 2023)
